# According to patent publication US20090012053A1, “Use of LXR agonists for the treatment of osteoarthritis” (Wyeth, priority 2006, published 2009):
# Test system: aggrecanase
# Assay: Western blot of aggrecanase-generated aggrecan neoepitopes (BC3, AGEG antibodies) in culture medium of human OA cartilage explants
# Type: cell-based
# Method: FIG. 4A is a Western blot showing aggrecanase-generated aggrecan neoepitopes using BC-3 antibody, which recognizes the N-terminus on aggrecanase-generated aggrecan catabolites. Cartilage explants from two human donors with end stage OA (after joint replacement surgery) were used. Donor #259 is a patient, and donor #261 is a patient. Lanes 1, 5: vehicle. Lanes 2, 6: TO901317 (2 μM). Lanes 3, 7: IL-1β+oncostatin M (OSM) (10 ng/ml each). Lanes 4, 8: IL-1β+OSM+TO901317. FIG. 4B is a Western blot showing aggrecanase-generated aggrecan neoepitopes using AGEG antibody, which recognizes a different epitope on aggrecanase-generated aggrecan catabolites. Lanes 1, 5: vehicle. Lanes 2, 6: TO901317 (2 μM). Lanes 3, 7: IL-1β+OSM (10 ng/ml each). Lanes 4, 8: IL-1β+OSM+TO901317. Fresh cartilage from human OA donors was cut into pieces (˜10 mg/piece, ˜2×2×2 mm). The cartilage explants were randomized into 24 well plates (˜250 mg wet weight/well). Three wells of explants were included for each treatment group. The explants were cultured in 1 ml DMEM/F-12 with 10% FBS for 3 days, then the complete medium was replaced with serum-free medium. Twelve hours later, the medium was removed and fresh serum-free medium (1 ml) was added, followed by LXR agonist T0901317 treatment (2 μM). IL1β/Oncostatin M (10 ng/ml each) were added 8 hours later. The explants were then cultured in the presence or absence of LXR agonist T0901317 and IL1β/Oncostatin M for additional 20 hours. 180 μl of pooled culture medium from each treatment group was deglycosylated with chondroitinase ABC, keratanase, keratanase II in the presence of 50 mM EDTA at 37° C. for 3 hrs. The samples were then concentrated and separated in a 4-12% SDS-PAGE gel. Western analysis was performed using either mouse BC3 neoepitope antibody (1:1500), or rabbit anti-AGEG antibody (1:1000) as the primary antibody, and anti-mouse or anti-rabbit IgG antibody conjugated with […] (1:5000) as the secondary antibody. […] Treatment with T0901317 blocked the induction of BC3 and AEEG release by cytokines. In the experiment using donor #261, BC3- and AEGE-containing aggrecan fragments were released into the culture medium from untreated cartilage explants.
structure (smiles),measurement,setting,value
"O=S(=O)(c1ccccc1)N(CC(F)(F)F)c1ccc(C(O)(C(F)(F)F)C(F)(F)F)cc1 [Formula T0901317, N-(2,2,2-trifluoroethyl)-N-{4-[2,2,2-trifluoro-1-hydroxy-1-(trifluoromethyl)ethyl]phenyl}benzene sulfonamide]",cytokine-induced release of BC3 containing aggrecan fragments into the culture medium,"donor #259, 2 μM, IL1β/Oncostatin M 10 ng/ml each, FIG. 4A",blocked
same,cytokine-induced release of AGEG containing aggrecan fragments into the culture medium,"donor #259, 2 μM, IL1β/Oncostatin M 10 ng/ml each, FIG. 4B",blocked
same,cytokine-induced release of AGEG-containing fragment from the explants,"donor #261, 2 μM, IL1β/Oncostatin M 10 ng/ml each, FIG. 4B",it was blocked
same,amount of BC3-containing aggrecan fragments released into the culture medium without cytokines,"donor #261, 2 μM, no cytokine, FIG. 4A",reduced the amount of these fragments
same,amount of AGEG-containing aggrecan fragments released into the culture medium without cytokines,"donor #261, 2 μM, no cytokine, FIG. 4B",reduced the amount of these fragments
